Results on three substances are retold here after paper PMC8776730 (Nature Communications, 2022).

Series [1] in a line: Nanofiber dynamic growth, ThT staining. The series is classed as physicochemical. Particulars: aggregation curve with ThT trace.
Series [2] has as its system MIA PaCa-2 cells. The series can be described thus: Cellular imaging (CLSM) of FITC-labelled molecules. The series is classed as cell-based. As for the experimental part:
To further confirm this hypothesis, the M1 and M2 were equally labeled by FITC for cell imaging (Fig. 5b). To simulate the dynamic physiological condition, the cell culture medium was replaced every 15 min. After 1 h of incubation with M1 and M2 at the same molecule molar concentration, there occurred significant differences between the two molecules (Fig. 5c). […] The huge difference can be explained by the fact that the secondary assembly rate broke the balance between the targeted ligand and receptor, and thus tended to a stable assembly interaction. The retention efficiency depended on the assembly rate constant Ka. Meanwhile, the rapid dynamic assembly of BIVA probe in situ around the cell membrane, and contributed to the efficient formation and retention of nanofibers on the cell profile. When the incubation time was delayed up to 2 h, some components could be endocytosed into the cells, but most of them were found on the membranes (Supplementary Fig. 18). […] Then, the isolated cells were collected and lysed, the extracted cell membrane fragments were stained with ThT. […] In order to verify the influence of the addition of the targeting module of the probe molecules, we explored the imaging of R-M1 and M4 on cells.
(§1) Fig. 5 The BIVA effect with enhanced targeting to pancreatic tumor cell for boundaries imaging. a Illustration of BIVA effect: active targeting and assembly/aggregate induced retention (AIR) effect. b Chemical structure of FITC labeling. c 2D and 3D confocal images of M2 with active targeting property and M1 with BIVA effect on MIA PaCa-2 cells after incubation for 1 h. d The distribution of M1 on MIA PaCa-2 cell. e ThT staining of the lysed cell membrane of MIA PaCa-2. f, Illustration of migration inhibition after treated by BIVA probe. g The image of the migrated cells after treatment of PBS (blank), M2, M4, and M1. Scale bar: 100 μm. h The pie diagram of quantitative statistical calculation of the migrated cells (blue) in different groups. The blank control was set as 100% migrated cells.
MIA PaCa-2 cells were digested with trypsin, counted with cell counting plate, diluted to 1 × 10^4 with DMEM medium, and 1 mL to 1 cm diameter confocal microscope dish was taken. The cells were incubated in […] atmosphere for 24 h. The medium containing M1 and M2 (50 μM) was replaced and incubated with the cells for 2 h. The cells were washed with PBS for 3 times. CLSM (Zeiss 710) was used to image cells under 40 × objective, excitation = 488 nm, and emission >520 nm.
Supplementary Fig. 19 ∣ CLSM images of Miapaca-2 cells treated with different molecules or M1 under different conditions. […]

Series [3] is described as follows: Critical assembly concentration (CAC) by pyrene fluorescence probe. The class given is physicochemical. Particulars: for I1/I3: pyrene fluorescence. An excerpt: In order to study the molecular design and their assembly behavior, we modular designed and synthesized seven molecules (Table 1), which respectively were BIVA probe: M1 (mPEG-GPAKLVFFGC(IR783)GRGD); the non- FAP-α tailoring molecule: M2 (mPEG-AGGKLVFFGC(IR783)GRGD) scrambled response tailoring motif of Gly-Pro-Ala with Ala-Gly-Gly; the non-labeling molecule of M1: M3 (mPEG-GPAKLVFFGCGRGD) removed IR783 labeling; FAP-α tailoring residue of M1: R-M1 (AKLVFFGC(IR783)GRGD); the non-targeting molecule: M4 (mPEG-GPAKLVFFGC(IR783)GDTG) scrambled targeting tailoring motif of Arg-Gly-Asp with Asp-Thr-Gly; the non-labeling molecule of M2: M5 (mPEG-AGGKLVFFGCGRGD) removed IR783 labeling; FAP-α tailoring residue of M3: R-M3 (AKLVFFGCGRGD). All the synthesized procedure (Supplementary Fig. 1) and characterizations of these seven molecules can be found in SI (Supplementary Figs. 2–8). […] Without IR783 labeling, molecules of M3 and M5 decreased the CAC value in solution relative to M1 and M2, which could be attributed to the proximity of the steric hindrance of hydrophilic IR783 to the self-assembly motif (Supplementary Fig. 9). […] The CAC was quantitatively calculated by fluorescence probe of pyrene.

Series [4] is described as follows: Secondary structure proportions from CD spectra. The class given is physicochemical. Particulars: calculated by Reed's Reference based on CD spectra; DI water. The text has this:
To further evaluate the assembled structures, the corresponding circular dichroism (CD), Fourier transform infrared (FTIR) spectroscopy, and wide-angle X-ray scattering (WAXS) spectroscopy were applied. […] The FITR spectra of M1 and M3 in Fig. 3b observed the intermolecular interactions. The peaks at 1629 cm^−1, 1675 cm^−1, and 1698 cm^–1 of M3 indicated anti-parallel β-sheet structure (represent by green arrow heads), peaks at 1648 cm^−1 and 1663 cm^−1 indicated parallel beta sheet structure (represent by blue arrow heads), the existence of 1654 cm^−1 indicate α-Helix structure in M1 which verified the results deduced by CD in Fig. 3a[29],[30]. […] As a homologous sequence with amyloid β-protein (Aβ), the self-assembly motif with peptide sequence of KLVFFGCG had similar aggregation kinetics to (Aβ)42 peptide, which occurred via dynamic growth from oligomers to amyloid fibrils. The aggregation started from the freshly isolated monomers of R-M1, and precipitates were separated in 1 min and 1 h, respectively. […] After analyzed the CD spectra of M1, M3, and R-M1 (Fig. 3e), it can be clearly seen that the main secondary conformation of M1 was Random, the M3 was hybrid of Helix and Beta, and the R-M1 was Beta (Supplementary Table 1). All the results confirmed the conclusion from FTIR spectra. […] The dynamic growth procedure was like the 8-anilino-1-naphthalenesulfonic acid (ANS) stained curve (Supplementary Fig. 12). As known, ANS was sensitive to hydrophobic interaction. When R-M1 were in the initial oligomer, the fluorescence intensity of ANS increased due to the enhanced hydrophobicity. When the molecules were elongated and stacked in higher ordered nanofibrils, the blue shift of ANS in the β-sheet structures reduced the fluorescence. The molecular packing mode of well-ordered fibrils of R-M1 in Fig. 3g observed a weak reflection at 4.9 Å as laminates space and a strong broad reflection at 10.3 Å as sheet space, which was illustrated in the inserted figure. The fibril morphology was characterized by transmission electron microscopy (TEM) imaging (Fig. 3f). The statistical calculation of the fiber diameter in TEM images was 5.0 ± 0.4 nm (Supplementary Fig. 13), which was corresponded to the theoretical calculated two molecules length of R-M1. We assumed that the nanofibers were assembled by twisted R-M1 molecules centered on self-assembly motif.
The secondary structures of M1, M3 and R-M1 were verified by CD spectroscopy (JASCO Corporation, JC-1500) at room temperature with a cell path length of 1 cm. M1, […] and R-M1 were diluted to 100 μM with deionized water at 25 °C and allowed to stand for 12 h for complete assembly. Detail parameter setting were CD scale:200 mdeg/1.0Dod, measure range: 260~190 nm, scanning speed: 500 nm/min, bandwidth: 1.00 nm, and data pitch: 0.5 nm. All spectra were the average of three measurements.
Supplementary Table 1∣ Secondary structure proportions ofM1, M3 and R-M1 calculated by Reed’s Reference based on […]

The test system of series [5] is MIA PaCa-2 cells. The series can be described thus: Transwell migration assay. The class given is cell-based. Particulars: for migrated cells (Fig S20): MIA PaCa-2 cells. Here is the method: as §1
In order to further understand the contribution of the active targeting and AIR effect during locating of the cells, the cell transwell experiment was used to quantitively evaluate interference of the cell migration based on M1, M2, and M4 (Fig. 5f). As expected, untreated cells were easy to migrate to the lower chamber, while the cells treated with active targeting molecule M2 and assembled molecule M4, the migration of cell were reduced. Under the same molar concentration, the M1 treatment group had the most inference on cell migration (Fig. 5g). […] Based on those results, we speculate M1 can be more enriched in the tumor site and form fibers through assembly to inhibit tumor cell migration compared to M2 and M4 which have no ability to target and adhere on the cell membrane.
Transwell migration assay occurred in chemotaxis chambers containing 24 wells. […] Bottom chambers contained DMEM medium containing 10% FBS. After 24 h of treatment with M1, M2, and M4 (150 μM), we fixed cells using 4% paraformaldehyde and stained with 0.25% crystal violet solution. The stained cells were counted using a microscope.
Supplementary Fig. 20∣ The quantitative results of the migrated cells after treatment of PBS (blank), M2, […] and
M1 (Fig 5g). The mean of results of fiveparallel experiments is shown and data were expressed as mean ± SD (n=5).
pM1 = 5.85E-06, pM2 = 5.94E-05, pM4 = 3.16 E-04, Statisticalanalysis: one-way ANOVA followed by post hoc Tukey’s
(§2) (1 picture or pasted object on this page, not shown here)

The conditions of series [6]: mouse, in vivo, iv, 16 mg/kg.
The next series has as its system MIA PaCa-2 tumor. Particulars: mouse, in vivo, 16 mg/kg. As for the experimental part:
In order to reduce systemic error and individual difference, we constructed the subcutaneous pancreatic cancer model in mice for quantitatively calculating of the metabolic data.
All the animal experiments were performed in accordance with the Guide for the Care and Use of Laboratory Animals approved by the Committee for Animal Research of the National Center for Nanoscience and Technology. The MIA PaCa-2 tumor-bearing mice were intravenously injected with ICG, M1 and M2 (16 mg/kg), respectively for in vivo fluorescence imaging with in vivo spectrum imaging system. Finally, mice were sacrificed to collect the major organs and tumors for ex vivo fluorescence imaging.

In series [7] the test system is MIA PaCa-2 cells. The series can be described thus: Cytotoxicity, CCK-8 assay. As to conditions: CCK-8, 24 h, at high concentration of 300 μM. The class given is cell-based. As for the experimental part: The cytotoxicity of M1 and M2 was evaluated using CCK-8 assay in MIA PaCa-2 cells. Cells were seeded into 96-well plates at a density of 5 × 10^4 cells per well and placed in an incubator for 14 h. Subsequently, the sample was diluted into a series of different concentrations (0, 50, 100, 150, 200, 250, 300, and 350 μM) and incubated with cells for 24 h. After that, 10 μL of CCK-8 solution was added to each well and incubated for 2 h. The absorbance of blank wells (Ab), sample wells (As) and control wells (Ac) were measured with a microplate reader at a test wavelength of 450 nm and a reference wavelength of 690 nm. The cell viability rate (%) is equal to (As -Ab) / (Ac -Ab) ×100%. All experiments were repeated in triplicate.
Supplementary Fig. 21∣ Cellviability assay of Miapaca-2 cells treated with a series concentration of M1 and M2 for 24 h.
Tested by Cell Counting Kit-8 (Beyotime, C0039) The mean of results of six parallel experiments isshown and data were
expressed as mean ± SD (n=6).
as §2

Series [8] is described as follows: MIA PaCa-2 cells / Miapaca-2 cell lysis. As to conditions: up to 2 h.
In series [9] the test system is Recombinant Human Fibroblast Activation Protein-α (FAP-α). Nature of the series: FAP-α in buffer: 50 mM Tris, 1 M NaCl, 1 mg/mL, BSA, pH 7.5. Particulars: up to 12 h.
Series [10] can be described thus: MIA PaCa-2 cells (supplement contents: Miapaca-2 cell lysis). As to conditions: up to 2 h.

On to “AKLVFFGC(IR783)GRGD [R-M1, FAP-α tailoring residue of M1]”, for which the final plain phase in series [1] was above 30 min. Besides, the “state in the medium (solubility)” value in the series with MIA PaCa-2 cells [2] (co-incubation with MIA PaCa-2 cells) is reported as “insoluble suspended mixture”. In [3] (aqueous solution, analyzed based on pyrene fluorescence), the “Critical assembly concentration (CAC)” value was 37.2 µM. The I1/I3 in [3] (conc 1.56 μM) was 1.233; in series [3] (conc 12.5 μM), 1.275; in [3] (conc 25 μM), 1.246; in series [3] (conc 100 μM), 1.302; in [3] (conc 200 μM) it was 1.43. Further, in series [4], the Secondary structure proportion: Beta is 72%. The Secondary structure proportion: Helix in series [4] is 0.5%. Further, in series [4], the Secondary structure proportion: Random is 0%. Besides, the Secondary structure proportion: Turn in series [4] was 27.5%.

For the substance mPEG-AGGKLVFFGC(IR783)GRGD [M2], in the series on MIA PaCa-2 cells [5] (MIA PaCa-2, 150 μM, 24 h, blank control = 1), the “emigrate (migrated cells relative to blank)” value was determined as 0.6397. The “migrated cells (Fig S20)” value in the series on MIA PaCa-2 cells [5] (averge of groups 1-3) stood at 587; in the series with MIA PaCa-2 cells [5] (group 1), 547; in the series with MIA PaCa-2 cells [5] (group 2), 625; in the series on MIA PaCa-2 cells [5] (group 3), 589. Further, in series [6], the “blood circulation half-life (t1/2)” value stood at 1.7 ± 0.067 h. Also, the “reduction of tumor fluorescence signal between 12 h and 120 h” value in the series on MIA PaCa-2 tumor is “disappeared completely”. Besides, the “time of distribution and accumulation in the tumor area” value in the series on MIA PaCa-2 tumor (iv) fell in the range of 0.1 to 24 h. The “fluorescence signal on the cell membrane” value with MIA PaCa-2 cells [2] (FITC-labelled molecules, MIA PaCa-2 cells, 1 h incubation, CLSM) is on record as “significantly reduced the fluorescence signal”. Also, the cytotoxicity entry in the series with MIA PaCa-2 cells [7] is reported as “no obvious cytotoxicity”.

For the substance mPEG-GPAKLVFFGC(IR783)GRGD, the results for the fragment found entry in series [8] and in series [10] were “PEG residues” and “R-M1”, respectively. Also, in series [9], the cleaved bond entry was “Pro-Ala”.
